Test results published in PubChem BioAssay AID2060601 (Molecular Pharmacology Branch, DTP, NCI, 2025).

System: 874868-142-R-J2-PDC complex spheroids, growth % test/control
Experiment: Anticancer human tumor 874868-142-R-J2-PDC patient-derived head and neck squamous carcinoma cell line growth inhibition [CLK]
Conditions: for IC50: curve of first compound; for viability, T/C: stronger effect = lower value
Method in brief: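 Patient-derived tumor cells grown as complex spheroids with HUVEC endothelial cells and mesenchymal stem cells, treated with drug combinations. Concentrations descend in half-log steps from near clinical Cmax, or from 10 microM if Cmax unknown.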

[1] = second compound 0.0316 µM, first compound 0.0316 µM
[2] = second compound 0.0316 µM, first compound 0.1 µM
[3] = second compound 0.0316 µM, first compound 0.316 µM
[4] = second compound 0.0316 µM, first compound 1 µM
[5] = second compound 0.0316 µM, first compound 3.16 µM
[6] = second compound 0.0316 µM, first compound 10 µM
[7] = second compound 0.1 µM, first compound 0.0316 µM
[8] = second compound 0.1 µM, first compound 0.1 µM
[9] = second compound 0.1 µM, first compound 0.316 µM
[10] = second compound 0.1 µM, first compound 1 µM
[11] = second compound 0.1 µM, first compound 3.16 µM
[12] = second compound 0.1 µM, first compound 10 µM
[13] = second compound 0.316 µM, first compound 0.0316 µM
[14] = second compound 0.316 µM, first compound 0.1 µM
[15] = second compound 0.316 µM, first compound 0.316 µM
[16] = second compound 0.316 µM, first compound 1 µM
[17] = second compound 0.316 µM, first compound 3.16 µM
[18] = second compound 0.316 µM, first compound 10 µM
[19] = second compound 1 µM, first compound 0.0316 µM
[20] = second compound 1 µM, first compound 0.1 µM
[21] = second compound 1 µM, first compound 0.316 µM
[22] = second compound 1 µM, first compound 1 µM
[23] = second compound 1 µM, first compound 3.16 µM
[24] = second compound 1 µM, first compound 10 µM
[25] = second compound 3.16 µM, first compound 0.0316 µM
[26] = second compound 3.16 µM, first compound 0.1 µM
[27] = second compound 3.16 µM, first compound 0.316 µM
[28] = second compound 3.16 µM, first compound 1 µM
[29] = second compound 3.16 µM, first compound 3.16 µM
[30] = second compound 3.16 µM, first compound 10 µM
[31] = second compound 10 µM, first compound 0.0316 µM
[32] = second compound 10 µM, first compound 0.1 µM
[33] = second compound 10 µM, first compound 0.316 µM
[34] = second compound 10 µM, first compound 1 µM
[35] = second compound 10 µM, first compound 3.16 µM
[36] = second compound 10 µM, first compound 10 µM
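Further: spheroids exposed to the compounds for 7 days.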
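Wherever viability, T/C is given: 100% = DMSO vehicle control viability.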

## C=CC(=O)N1CCN(c2nc(=O)n(-c3c(C)ccnc3C(C)C)c3nc(-c4c(O)cccc4F)c(F)cc23)C(C)C1 (centres undefined) + CNC(=O)c1ccc(Nc2nc(OC3CCCC3)c3c(-c4ccc5nc(C)oc5c4)c[nH]c3n2)c(OC)c1
Second compound 0.0316 µM
  IC50: > 10000 nM
Second compound 0.1 µM
  IC50: > 10000 nM
Second compound 0.316 µM
  IC50: > 10000 nM
Second compound 1 µM
  IC50: < 31.6 nM
Second compound 3.16 µM
  IC50: < 31.6 nM
Second compound 10 µM
  IC50: < 31.6 nM
[1]
  viability, T/C: 99.7%
[2]
  viability, T/C: 82.6%
[3]
  viability, T/C: 96.6%
[4]
  viability, T/C: 108%
[5]
  viability, T/C: 124%
[6]
  viability, T/C: 103%
[7]
  viability, T/C: 82.7%
[8]
  viability, T/C: 91.5%
[9]
  viability, T/C: 90.3%
[10]
  viability, T/C: 92.1%
[11]
  viability, T/C: 101%
[12]
  viability, T/C: 88%
[13]
  viability, T/C: 50.4%
[14]
  viability, T/C: 59.7%
[15]
  viability, T/C: 56.9%
[16]
  viability, T/C: 53.4%
[17]
  viability, T/C: 59%
[18]
  viability, T/C: 58.3%
[19]
  viability, T/C: 40.6%
[20]
  viability, T/C: 47.7%
[21]
  viability, T/C: 36.3%
[22]
  viability, T/C: 46.1%
[23]
  viability, T/C: 41.2%
[24]
  viability, T/C: 40.6%
[25]
  viability, T/C: 42.8%
[26]
  viability, T/C: 39.2%
[27]
  viability, T/C: 41.1%
[28]
  viability, T/C: 45.2%
[29]
  viability, T/C: 53%
[30]
  viability, T/C: 36.4%
[31]
  viability, T/C: 31.3%
[32]
  viability, T/C: 33.5%
[33]
  viability, T/C: 35.4%
[34]
  viability, T/C: 41%
[35]
  viability, T/C: 40%
[36]
  viability, T/C: 28.3%

## COC1C=CCC(C)C(C)S(=O)(=O)NC(=O)c2ccc3c(c2)N(CC2CCC21)CC1(CCCc2cc(Cl)ccc21)CO3 (centres undefined) + CNC(=O)c1ccc(Nc2nc(OC3CCCC3)c3c(-c4ccc5nc(C)oc5c4)c[nH]c3n2)c(OC)c1
Second compound 0.0316 µM
  IC50: 706 nM
Second compound 0.1 µM
  IC50: 751 nM
Second compound 0.316 µM
  IC50: 79.6 nM
Second compound 1 µM
  IC50: < 31.6 nM
Second compound 3.16 µM
  IC50: < 31.6 nM
Second compound 10 µM
  IC50: < 31.6 nM
[1]
  viability, T/C: 92.5%
[2]
  viability, T/C: 87.4%
[3]
  viability, T/C: 64.6%
[4]
  viability, T/C: 42.1%
[5]
  viability, T/C: 28.4%
[6]
  viability, T/C: 15.8%
[7]
  viability, T/C: 92.2%
[8]
  viability, T/C: 68%
[9]
  viability, T/C: 57.1%
[10]
  viability, T/C: 56.6%
[11]
  viability, T/C: 28%
[12]
  viability, T/C: 13.2%
[13]
  viability, T/C: 58.7%
[14]
  viability, T/C: 49.1%
[15]
  viability, T/C: 35.6%
[16]
  viability, T/C: 29.1%
[17]
  viability, T/C: 25%
[18]
  viability, T/C: 14.3%
[19]
  viability, T/C: 44.4%
[20]
  viability, T/C: 34.8%
[21]
  viability, T/C: 24.9%
[22]
  viability, T/C: 18.6%
[23]
  viability, T/C: 14.8%
[24]
  viability, T/C: 16.8%
[25]
  viability, T/C: 36.9%
[26]
  viability, T/C: 28.7%
[27]
  viability, T/C: 25.7%
[28]
  viability, T/C: 19.7%
[29]
  viability, T/C: 18.5%
[30]
  viability, T/C: 16.9%
[31]
  viability, T/C: 40.1%
[32]
  viability, T/C: 30.4%
[33]
  viability, T/C: 32.8%
[34]
  viability, T/C: 17.4%
[35]
  viability, T/C: 20.6%
[36]
  viability, T/C: 14.9%
